Measured values from patent US11491232B2, “Lactuloside compounds and preparation and use thereof” (Fruithy Holdings Limited, priority 2017, dated 2022).

Tests used:
[1] = Test on stability in mediums in vitro (buffer solutions with different pH, simulated intestinal fluid, simulated gastric fluid); type: physicochemical
Protocol: At 37° C., Compound 17 was incubated in different mediums (buffer solutions with different pH, a simulated intestinal fluid containing pancreatin, and simulated gastric fluid containing pepsin).
(§1) Other typical example compounds were tested for stability according to the above method, and the test results are shown in Table 8 below.

[2] = test system: colon flora; test: Stability in the presence of colon flora (content in colon of rat); type: in vitro ADME, SD rat
Protocol: A phosphate buffer solution with a pH of 7.0 was formulated, and then CO2 was introduced to the solution to adjust the pH to 6.8. Then, the content in colon of a male SD rat (body weight: 180-220 g) was placed in a water bath at 37° C., and added into the phosphate buffer solution with a pH of 6.8 as prepared above under the protection of N2 to a concentration of 20% (w/v). The buffer solution was kept in an oxygen-free environment. Then, the test Compound 17 was added to the buffer solution, and the solution was stirred uniformly.
Supernatant was analyzed with HPLC, where the amount of each ingredient was calculated by normalization.
Note: in the above table, “T14.148 (%)” represents the percentage of peak area of the material with a retention time of 14.148 min “T14.713 (%)” represents the percentage of peak area of the material with a retention time of 14.713 min. “T16.392 (%)” represents the percentage of peak area of the material with a retention time of 16.392 min. “T22.624 (%)” represents the percentage of peak area of the material with a retention time of 22.624 min.
as §1

[3] = Simulated intestinal fluid (containing pancreatin) (pH 6.8) (8 h)
[4] = Content in colon (pH 6.8) (1 h)
[5] = male, Sprague-Dawley (SD), rat, 1 h, pH 6.8

Row | SMILES | Percentage of the example compound remaining (Composition, %) [1, 3] [%] | Percentage of the released active drug (prednisolone, dexamethasone, budesonide, apremilast or prucalopride) (Composition, %) [1, 3] [%] | Percentage of the released active drug (prednisolone, dexamethasone, budesonide, apremilast or prucalopride) (Composition, %) ([1]; Water (pH 1.2) (2 h)) [%] | Percentage of the example compound remaining (Composition, %) [2, 4] [%] | Percentage of the example compound remaining (Composition, %) ([1]; Water (pH 1.2) (2 h)) [%] | Percentage of the example compound remaining (Composition, %) [2, 5] [%] | Percentage of the released active drug (prednisolone, dexamethasone, budesonide, apremilast or prucalopride) (Composition, %) [2, 5] [%]
1 | COCCCN1CCC(NC(=O)c2cc(Cl)c(NC3(CO)O[C@H](CO)[C@@H](O[C@@H]4O[C@H](CO)[C@H](O)[C@H](O)[C@H]4O)[C@@H]3O)c3c2OCC3)CC1 (stereo partly drawn) [Compound 14, 5-chloro-2,3-dihydro-4-{[4-O-(β-D-galactopyranosyl)-D-fructofuranosyl]amino}-N-[1-(3-methoxypropyl)-4-piperidinyl]-7-benzofurancarboxamide] | 98.3 | 1.1 | 99.5 | 2.1 |  |  | 
2 | CCCC1O[C@@H]2C[C@H]3[C@@H]4CCC5=CC(=O)C=C[C@]5(C)[C@H]4[C@@H](O)C[C@]3(C)[C@]2(C(=O)COC2(CO)O[C@H](CO)C(O[C@@H]3OC(CO)[C@H](O)C(O)C3O)C2O)O1 (stereo partly drawn) [Compound 7, (11β,16α)-11-hydroxyl-16,17-(butylidenedioxy)-21-{[4-O-(β-D-galactopyranosyl)-D-fructofuranosyl]oxy}pregna-1,4-diene-3,20-dione] | 98.9 | 0.1 | 61.6 |  | 20.0 | 27.2 | 45.9
3 | C[C@@H]1C[C@H]2[C@@H]3CCC4=CC(=O)C=C[C@]4(C)[C@@]3(F)[C@@H](O)C[C@]2(C)[C@@]1(O)C(=O)COC1(CO)O[C@H](CO)[C@@H](O[C@@H]2O[C@H](CO)[C@H](O)[C@H](O)[C@H]2O)[C@@H]1O (stereo partly drawn) [Compound 4, (11β,16α)-9-fluoro-11,17-dihydroxyl-16-methyl-21-{[4-O-(β-D-galactopyranosyl)-D-fructofuranosyl]oxy}pregna-1,4-diene-3,20-dione] | 99.4 | 0 | 72.7 |  | 25.0 | 15.6 | 50.3
4 | COCCCN1CCC(N(C(=O)c2cc(Cl)c(N)c3c2OCC3)C2(CO)O[C@H](CO)C(O[C@@H]3OC(CO)[C@H](O)C(O)C3O)C2O)CC1 (stereo partly drawn) [Compound 13, 4-amino-5-chloro-2,3-dihydro-N-[1-(3-methoxypropyl)-4-piperidinyl]-N′-[4-O-(β-D-galactopyranosyl)-D-fructofuranosyl]-7-benzofurancarboxamide] | 99.4 | 0 | 95.0 | 18.7 | 4.4 |  | 
5 | CCOc1cc([C@@H](CS(C)(=O)=O)N2C(=O)c3cccc(N(C(C)=O)C4(CO)O[C@H](CO)C(O[C@@H]5OC(CO)[C@H](O)C(O)C5O)C4O)c3C2=O)ccc1OC (stereo partly drawn) [Compound 12, N-{2-[(S)-1-(3-ethoxy-4-methoxyphenyl)-2-(methylsulfonyl)ethyl]-1,3-dioxo-2,3-dihydro-1H-isoindol-4-yl}-N′-[4-O-(β-D-galactopyranosyl)-D-fructofuranosyl]acetamide] | 100 | 0 | 79.8 | 30.1 | 20.0 |  | 
